{"source": "patent US7094869B2", "about": "“Low molecular weight peptidomimetic growth hormone secretagogues” (Genentech, Inc., priority 1994, dated 2006)", "key": {"rat pituitary cells": {"target": "rat pituitary cells (Rattus norvegicus, UniProt O08725)", "sequence (O08725 whole entry)": "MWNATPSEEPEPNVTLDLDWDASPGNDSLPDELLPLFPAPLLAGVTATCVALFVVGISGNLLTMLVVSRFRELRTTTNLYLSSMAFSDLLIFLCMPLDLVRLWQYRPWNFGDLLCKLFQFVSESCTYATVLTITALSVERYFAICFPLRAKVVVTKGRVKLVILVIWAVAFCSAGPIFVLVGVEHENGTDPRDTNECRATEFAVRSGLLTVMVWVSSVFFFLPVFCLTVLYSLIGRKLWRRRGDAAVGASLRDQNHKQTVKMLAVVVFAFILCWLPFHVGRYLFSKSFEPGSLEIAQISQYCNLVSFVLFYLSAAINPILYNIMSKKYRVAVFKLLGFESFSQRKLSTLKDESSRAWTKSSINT", "experiment": "Rat “pit” cell challenges: combinations with GHRP-6/GHRH, desensitization, somatostatin suppression, GHRP antagonist", "assay_type": "cell-based", "protocol": "Dispersion: Adult female Sprague-Dawley (160-180 g., Charles River) rats were group-caged in a 12:12 light:dark cycle with food and water available ad libitum. Pituitaries from ten rats were removed, the posterior pituitary discarded and the anterior pituitary placed in Hanks' Balanced Salt Solution (HBSS: without calcium chloride, w/o magnesium chloride, w/o magnesium sulfate; Gibco) containing 20 mM HEPES (Gibco) and 100 U/ml penicillin streptomycin (PS: JRH Biosciences). Under sterile conditions, pituitaries were rinsed twice then minced into small fragments with a razor blade. Fragments were resuspended in 5 ml of HBSS/HEPES containing 20 mg collagenase (Serva 17449) and 200 ml of 1 mg/ml DNase (Sigma) for a 40 min. incubation in a 37° C. gyrotory water bath shaker (New Brunswick Scientific Model G76; setting 10). After the incubation, fragments were triturated to yield small clumps and single cells. The cells were centrifuged 1000× g for 5 min, resuspended, counted and plated at a final cell concentration of 100,000 cells/ml. Incubation media was DME low glucose media w/NaHCO3 (Gibco) containing 20 mM hepes, 100 U/ml PS and 10% FBS (Hyclone A-111-L). Cells were plated at 0.5 ml per well in 48 well plates (Falcon) and incubated at 37° C. in 5% C02 for three days. […] The highest concentration of DMSO in media was 0.1%. Stock solutions (1 mM) of rat GHRH, somatostatin (Sigma) and GHRP antagonist HwkWfK were made fresh in media and diluted appropriately. The media used in all challenges and washing steps was DME low glucose with 20 mM Hepes, 100 U/ml PS, 10% FBS. Media was warmed to 37° C. and gassed by placing it into the incubator prior to challenge. On day three, the media was discarded and fresh media (approximately 1 ml) added for the first of three washes. After the last wash, the plate was placed back in the incubator for a 15 min pre-incubation. Then cells were washed 2× (with warmed and gassed media) and fresh 0.5 ml media were added for the second 15 min. pre-incubation. After the second pre-incubation cells were washed 2× as above and 0.5 ml of control and test solutions were added for a final 15 min incubation. After this incubation, the media were removed for subsequent GH ELISA. GH ELISA: A two-site ELISA was used to determine rat GH concentration in the media. Briefly, goat anti-rat GH antibody (lot#19164-20) was used to coat Nunc immunoplates overnight. After blocking and washing, standard (rat GH reference preparation: Parlow) and challenge media is diluted 1:20 prior to GH assay were added for a 1 hr room temperature incubation. STATISTICS: The mean for each group was determined and analyzed by one-way analysis of variance with a post-hoc Student-Newman-Keuls. Significance is defined as P<0.05. The EC50 was calculated using a 4-parameter curve-fit program (Kaleidagraph). Three to four independent EC50s were used to derive the mean and SEM."}, "ACTH": {"system": "ACTH", "experiment": "ACTH release from pituitary cells (RIA)", "assay_type": "cell-based, rat", "details": "100 nM", "method": "Dispersion: Adult female Sprague-Dawley (160-180 g., Charles River) rats were group-caged in a 12:12 light:dark cycle with food and water available ad libitum. Pituitaries from ten rats were removed, the posterior pituitary discarded and the anterior pituitary placed in Hanks' Balanced Salt Solution (HBSS: without calcium chloride, w/o magnesium chloride, w/o magnesium sulfate; Gibco) containing 20 mM HEPES (Gibco) and 100 U/ml penicillin streptomycin (PS: JRH Biosciences). Under sterile conditions, pituitaries were rinsed twice then minced into small fragments with a razor blade. Fragments were resuspended in 5 ml of HBSS/HEPES containing 20 mg collagenase (Serva 17449) and […] of 1 mg/ml DNase (Sigma) for a 40 min. incubation in a 37° C. gyrotory water bath shaker (New Brunswick Scientific Model G76; setting 10). After the incubation, fragments were triturated to yield small clumps and single cells. The cells were centrifuged 1000× g for 5 min, resuspended, counted and plated at a final cell concentration of 100,000 cells/ml. Incubation media was DME low glucose media w/NaHCO3 (Gibco) containing 20 mM hepes, 100 U/ml PS and 10% FBS (Hyclone A-111-L). Cells were plated at 0.5 ml per well in 48 well plates (Falcon) and incubated at 37° C. in 5% C02 for three days. For challenges to determine release of other pituitary hormones cells were plated at 200,000 cells per ml with 2 ml per well of a Swell plate (Corning). Challenge: A (inip)bbFK-NH2 stock (or other GHRP) concentration of 1 mM was made in DMSO and diluted with warmed media approximately 30 min prior to use. The highest concentration of DMSO in media was 0.1%. […] STATISTICS: The mean for each group was determined and analyzed by one-way analysis of variance with a post-hoc Student-Newman-Keuls. […] The EC50 was calculated using a 4-parameter curve-fit program (Kaleidagraph). […] RIA of pituitary hormones: LH, FSH, TSH, and Prolactin were determined with commercially available kits from Amersham, and ACTH levels were determined by a RIA kit from ICN. […]"}, "[1]": {"experiment": "Combination GHRP and IGF-1 treatment of obese Zucker Diabetic Fatty (ZDF) rats", "assay_type": "in vivo, rat", "method": "Ten lean ZDF rats served as an additional control group.\nThis GHRP was given by sc. injection twice daily, each dose of 100 μl therefore containing 50 μg/injection or 100 μg/day.\nRecombinant human IGF-1 (rhIGF-1) at 13.8 mg/ml in acetate buffer was loaded into osmotic minipumps (Alza, Palo Alto, model 2ML4, pump rate 2.29 μl/hr for 28 days, fill volume 2064 μl). Other pumps were filled with acetate buffer. […] The delivered dose of rhIGF-1 was therefore 758 μg/day. Recombinant human growth hormone (rhGH, Lot R9092AX, Genentech Inc.) was diluted in sterile water to 2.5 g/l and a 100 μl injection given twice daily (250 μg/injection, or 500 μg/day).\nThe next day the osmotic pumps were inserted into rats. […] All rats not receiving rhIGF-1 containing pumps were implanted with pumps delivering the acetate buffer excipient.\nOn day 24 blood was withdrawn after a 4 hour fast and 1.5 U/kg of regular insulin was injected i.p. and a second blood sample taken 30 minutes later. The rats were then sacrificed using carbon dioxide, bled from the heart, and organs taken. Serum glucose was measured by standard automated procedures.\nData are presented as mean±standard error (SE) of the mean with 8 rats per group."}}, "note": "“Also recorded” adds a separate entry of the source. Where two headings read alike, the source gives them in different places."}
{"smiles": "NCCCC[C@H](NC(=O)[C@H](Cc1ccccc1)NC(=O)[C@@H](Cc1ccc2ccccc2c1)NC(=O)[C@@H](Cc1ccc2ccccc2c1)NC(=O)C1CCNCC1)C(N)=O", "note": "[(inip) b b F K amide, (inip)-DβNal-DβNal-Phe-Lys-amide]", "values": [{"measurement": "increase in GH levels over control", "setting": "rat pituitary cells; 100 nM", "result": 3, "unit": "fold"}, {"measurement": "GH release in combination with GHRH", "setting": "rat pituitary cells; GHRP 100 nM plus GHRH 10 or 100 nM, listed as (inip)-bbFK-NH2", "result": "show synergy with 10 nM GHRH; also recorded: showed synergy with GHRH"}, {"measurement": "GH release in combination with GHRP-6", "setting": "rat pituitary cells; both at 100 nM, listed as (inip)-bbFK-NH2", "result": "no additional or synergistic increase was observed; also recorded: no additional increase was observed"}, {"measurement": "GH release in the presence of 20 nM somatostatin", "setting": "rat pituitary cells; coincubation with 20 nM somatostatin, listed as (inip)-bbFK-NH2", "result": "suppressed this enhanced release"}, {"measurement": "GH release after sequential 15 min incubations with fresh compound (desensitization)", "setting": "rat pituitary cells; three sequential 15 min incubations, 100 nM", "result": "no significant GH release compared to control"}, {"measurement": "ACTH release", "setting": "ACTH; listed as (inip)-bbFK-NH2", "result": "unchanged"}, {"measurement": "ACTH release", "setting": "ACTH; listed as (inip)bbFK-NH2", "result": "no significant change"}, {"measurement": "body weight gain", "setting": "[1]; Day 2, obese ZDF male rats, GHRP 100 μg/d sc injection, rhIGF-1 758 μg/d pump, rhGH 500 μg/d", "result": "18.3 ± 1.0", "unit": "g"}, {"measurement": "effect on insulin sensitivity (diabetogenic effect)", "setting": "[1]; rat, in vivo", "result": "greatly reduced effect on insulin sensitivity (diabetogenic effect) than rhGH"}, {"measurement": "fasting blood glucose", "setting": "[1]; rat, in vivo", "result": "386±63", "unit": "mg %"}, {"measurement": "serum insulin", "setting": "[1]; rat, in vivo", "result": "39 ± 6", "unit": "ng/mL"}, {"measurement": "serum IGF-1 concentrations", "setting": "either mode of delivery", "result": "not significantly affected"}, {"measurement": "thymus weight", "setting": "high dose infusion (100 μg/day)", "result": "0.25 ± 0.03", "unit": "g"}, {"measurement": "epiphyseal plate width", "setting": "high dose injections", "result": "191±8", "unit": "μm"}, {"measurement": "heart weight", "setting": "high dose injections", "result": "1.15 ± 0.10", "unit": "g"}, {"measurement": "thymus weight", "setting": "high dose injections", "result": "0.33 ± 0.02", "unit": "g"}, {"measurement": "eviscerated and skinned carcass weight", "setting": "high dose injections (50 μg 2 times a day)", "result": "152.4 ± 2.5", "unit": "g"}, {"measurement": "weight gain", "setting": "in 14 days, FIG. 20", "result": "36 ± 3", "unit": "g"}, {"measurement": "cartilage growth (epiphyseal plate width)", "setting": "infusions", "result": "did not significantly increase cartilage growth"}, {"measurement": "skin weight compared to control", "setting": "injections and low dose infusion", "result": "heavier"}, {"measurement": "soleus muscle, kidney and liver weight", "setting": "injections or infusions, 14 days", "result": "unaffected"}, {"measurement": "epiphyseal plate width", "setting": "low dose injections", "result": "160±11", "unit": "μm"}, {"measurement": "eviscerated and skinned carcass weight", "setting": "low dose injections (10 μg 2 times a day)", "result": "152.8 ± 2.8", "unit": "g"}, {"measurement": "weight gain", "setting": "twice daily injections of 10 μg, adult female rats", "result": 30, "unit": "gram"}]}
